Assay results published in patent US12661410B2, “Compounds for targeted degradation of RET” (C4 Therapeutics, Inc., priority 2020, dated 2026).
Substitutions are numbered along the chain they refer to. Where two headings read alike, the source gives them in different places.

Columns and labels:
RET(KD: 658-1114 G810R) = target: T1, RET(KD: 658-1114 G810R) (Homo sapiens, UniProt P07949, G810R); test: HiBiT-Degradation, RET G810R degradation assay (Nano-Glo HiBiT Lytic), 293T.165 cells; format: cell-based; details: for Emax / DC50: 6.0 hours
T1 construct: 658-1114; expressed in transfected cells; host or cells: 293T.165 (293T cells, generated in-house)
T1 sequence (P07949 658-1114 G810R): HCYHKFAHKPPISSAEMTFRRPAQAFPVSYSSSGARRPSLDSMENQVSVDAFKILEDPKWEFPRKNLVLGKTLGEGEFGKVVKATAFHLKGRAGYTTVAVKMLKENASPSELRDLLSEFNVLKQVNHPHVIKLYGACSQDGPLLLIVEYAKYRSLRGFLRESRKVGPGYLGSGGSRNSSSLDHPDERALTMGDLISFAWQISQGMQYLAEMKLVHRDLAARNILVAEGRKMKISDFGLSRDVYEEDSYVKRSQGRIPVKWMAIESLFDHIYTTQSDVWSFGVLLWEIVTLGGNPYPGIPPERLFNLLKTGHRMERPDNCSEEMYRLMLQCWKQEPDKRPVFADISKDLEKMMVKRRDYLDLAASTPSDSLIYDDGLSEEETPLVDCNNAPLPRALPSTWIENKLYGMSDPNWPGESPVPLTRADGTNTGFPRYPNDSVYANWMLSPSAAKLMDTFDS
Summary of the method: (§1)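 Luminescence readout of HiBiT-tagged RET kinase domain remaining after 6 h compound exposure. Cells: 293T.144 (wild type) or 293T.165 (G810R), 11 half-log doses up to 10 μM, duplicates. DC50 and Emax as % remaining protein taken from curve fits.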

RET (658-1114) = target: T2, RET (658-1114) (Homo sapiens, UniProt P07949); test: HiBiT-Degradation, RET wild-type degradation assay (Nano-Glo HiBiT Lytic), 293T.144 cells; format: cell-based; details: for Emax / DC50: 6.0 hours
T2 construct: 658-1114; expressed in transfected cells; host or cells: 293T.144 (293T cells, generated in-house)
T2 sequence (P07949 658-1114): T1 sequence (P07949 658-1114 G810R) with R153G
Summary of the method: as §1

[1] = % remaining protein, read-out: 293T.165 RET(KD: 658-1114 G810R) 6.0 hours (Emax)
[2] = half-maximal degradation concentration, read-out: 293T.165 RET(KD: 658-1114 G810R) 6.0 hours (DC50)
[3] = % remaining protein, read-out: 293T.144 RET (658-1114) 6.0 hours (Emax)
[4] = half-maximal degradation concentration, read-out: 293T.144 RET (658-1114) 6.0 hours (DC50)
[5] = HiBiT-Degradation, read-out: 293T.165 RET(KD: 658-1114 G810R) 6.0 hours (DC50)
[6] = HiBiT-Degradation, read-out: 293T.144 RET (658-1114) 6.0 hours (DC50)
[7] = HiBiT-Degradation, read-out: 293T.144 RET (658-1114) 6.0 hours (Emax)

Row | Compound | 293T.165 RET(KD: 658-1114 G810R) 6.0 hours (IP) [nM] (RET(KD: 658-1114 G810R)) | Emax (RET(KD: 658-1114 G810R); [1]) | DC50 (RET(KD: 658-1114 G810R); [2]) | 293T.144 RET (658-1114) 6.0 hours (IP) [nM] (RET (658-1114)) | Emax (RET (658-1114); [3]) | DC50 (RET (658-1114); [4]) | 293T.165 RET(KD: 658-1114 G810R) 6.0 hours (Emax) (RET(KD: 658-1114 G810R); HiBiT-Degradation) | 293T.165 RET(KD: 658-1114 G810R) 6.0 hours (IP) [nM] (RET(KD: 658-1114 G810R); HiBiT-Degradation) | DC50 (RET(KD: 658-1114 G810R); [5]) | 293T.144 RET (658-1114) 6.0 hours (IP) [nM] (RET (658-1114); HiBiT-Degradation) | DC50 (RET (658-1114); [6]) | Emax (RET (658-1114); [7]) | HiBiT-Degradation 293T.165 RET(KD: 658-1114 G810R) 6.0 hours (IP) [nM] (RET(KD: 658-1114 G810R); RET G810R) | DC50 (RET(KD: 658-1114 G810R); RET G810R, read-out: HiBiT-Degradation 293T.165 RET(KD: 658-1114 G810R) 6.0 hours (DC50)) | Emax (RET(KD: 658-1114 G810R); RET G810R, read-out: HiBiT-Degradation 293T.165 RET(KD: 658-1114 G810R) 6.0 hours (Emax)) | HiBiT-Degradation 293T.144 RET (658-1114) 6.0 hours (IP) [nM] (RET (658-1114); RET wild-type) | DC50 (RET (658-1114); RET wild-type, read-out: HiBiT-Degradation 293T.144 RET (658-1114) 6.0 hours (DC50)) | Emax (RET (658-1114); RET wild-type, read-out: HiBiT-Degradation 293T.144 RET (658-1114) 6.0 hours (Emax))
1 | N#Cc1cnn2cc(-c3cnn([C@H]4CC[C@H](N5CCN(c6ccc(NC7CCC(=O)NC7=O)cc6F)CC5)CC4)c3)nc(-c3ccc(N4CC5COCC(C4)N5Cc4ccccn4)nc3)c12 (single isomer, unassigned) [Compound 157, 6-(1-((1r, 4r)-4-(4-(4-((2,6-dioxopiperidin-3-yl)amino)-2-fluorophenyl)piperazin-1-yl)cyclohexyl)-1H-pyrazol-4-yl)-4-(6-(9-(pyridin-2-ylmethyl)-3-oxa-7,9-diazabicyclo[3.3.1]nonan-7-yl)pyridin-3-yl)pyrazolo[1,5-a]pyrazine-3-carbonitrile] | ++++ (<50 nM = ++++) | < 30% | < 50 nM | ++++ (<50 nM = ++++) | < 30% | < 50 nM |  |  |  |  |  |  |  |  |  |  |  | 
2 | CN(C)c1ccc(-c2cc(-c3cnn([C@H]4CC[C@@H](CCN5CCC(c6ccc(NC7CCC(=O)NC7=O)cc6)CC5)CC4)c3)cn3ncc(C#N)c23)cn1 (stereo partly drawn) [Compound 43, 4-[6-(dimethylamino)-3-pyridyl]-6-[1-[(1s,4s)-4-[2-[4-[4-[(2,6-dioxo-3-piperidyl)amino]phenyl]-1-piperidyl]ethyl]cyclohexyl]pyrazol-4-yl]pyrazolo[1,5-a]pyridine-3-carbonitrile] |  | < 50% | < 100 nM |  |  |  | +++ (<50% = +++) | ++++ (< 50 nM = ++++) | < 100 nM | ++++ (< 50 nM = ++++) | < 50 nM | < 30% |  |  |  |  |  | 
3 | N#Cc1cnn2cc(-c3cnn(C4CCN(C(=O)NC5CCN(c6ccc(NC7CCC(=O)NC7=O)cc6F)CC5)CC4)c3)cc(-c3ccc(N4CCN(Cc5ccccn5)CC4)nc3)c12 (stereo not drawn) [Compound 77, 4-[4-[3-cyano-4-[6-[4-(2-pyridylmethyl)piperazin-1-yl]-3-pyridyl]pyrazolo[1,5-a]pyridin-6-yl]pyrazol-1-yl]-N-[1-[4-[(2,6-dioxo-3-piperidyl)amino]-2-fluoro-phenyl]-4-piperidyl]piperidine-1-carboxamide] |  | < 50% | < 100 nM |  |  |  |  |  |  |  |  |  | ++++ (< 50 nM = ++++) | < 100 nM | < 50% | ++++ (< 50 nM = ++++) | < 50 nM | < 30%
4 | N#Cc1cnn2cc(-c3cnn([C@H]4CC[C@@H](N5CCN(c6ccc(N[C@@H]7CCC(=O)NC7=O)cc6F)CC5)CC4)c3)nc(-c3ccc(N4CC5CC(C4)N5C(=O)c4c(F)cccc4F)nc3)c12 (single isomer, unassigned) [Compound 172] | ++++ (<50 nM = ++++) | < 30% | < 50 nM | ++++ (<50 nM = ++++) | < 30% | < 50 nM |  |  |  |  |  |  |  |  |  |  |  | 
5 | N#Cc1cnn2cc(-c3ccc(N4CCN(C(=O)CN5CCC(c6ccc(NC7CCC(=O)NC7=O)cc6)CC5)CC4)cc3)cc(-c3ccc(N4CC5CC(C4)N5Cc4ccccc4)nc3)c12 (stereo not drawn) [Compound 22, 4-(6-(6-Benzyl-3,6-diazabicyclo[3.1.1]heptan-3-yl)pyridin-3-yl)-6-(4-(4-(2-(4-(4-((2,6-dioxopiperidin-3-yl)amino)phenyl)piperidin-1-yl)acetyl)piperazin-1-yl)phenyl)pyrazolo[1,5-a]pyridine-3-carbonitrile] |  | < 30% | < 100 nM |  |  |  | ++++ (< 30% = ++++) | ++++ (< 50 nM = ++++) | < 100 nM | ++++ (< 50 nM = ++++) | < 50 nM | < 30% |  |  |  |  |  | 
